As a reminder, the EC50 is the concentration giving half of the maximal effect. A word on the GI50: it is the concentration at which growth is held to half of that of the control. As a reminder, the IC50 is the concentration needed to halve the response being measured. For orientation: inhibition means the relative decrease from the control value, in per cent.

SMILES strings stand for the structures.

We go through 4 compounds from patent US11331299B2, “Medicinal use of serrulatane diterpenes” (The University of Sydney, priority 2016, dated 2022).

The subject of assay [1] is Rat L6 skeletal muscle cells. The assay is described as follows: [3H]-2-Deoxy-D-glucose uptake. In kind it is cell-based. The settings on record: 10 μM; assay year 2016. As for the experimental part: The in vitro pharmacological studies were conducted by Eurofins PanLab (Taiwan) using the parameters shown in Table 13 with respect to appropriate literature references.

Another assay deals with RKO-AS45-1. The assay is described as follows: OncoPanel cell proliferation assay (10-day). The assay is classed as cell-based, human. The settings on record: for EC50 / GI50 / IC50: Homo sapiens, RKOAS451, RKO-AS45-1, Colon; for EC50: read-out: Cell Count EC50; for GI50: read-out: Cell Count GI50; for IC50: read-out: Cell Count IC50.
The target of a further assay is T1, PB1(2) (h) bromodomain (Homo sapiens, UniProt Q86U86).
T1 construct: Bromodomain
Nature of the assay: Epigenetic binding assay, Bromodomain. The settings on record: read-out: % Inhibition of Control Specific Binding.

The target in another assay is T2, CREBBP (h) bromodomain (Homo sapiens, UniProt Q92793).
T2 construct: Bromodomain; Eurofins CEREP (France), contract laboratory
The assay is described as follows: Epigenetic binding assay, Bromodomain. The settings on record: for inhibition at 10 µM: read-out: % Inhibition of Control Specific Binding.

The target in the next assay is T3, CBX8 (h) chromodomain (Homo sapiens, UniProt Q9HC52).
T3 construct: Recognition and specificity determinants of the human cbx chromodomains; Eurofins CEREP (France), contract laboratory
T3 sequence (Q9HC52 11-69 limits assumed): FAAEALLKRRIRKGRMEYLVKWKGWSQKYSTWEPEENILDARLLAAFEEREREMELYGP
Nature of the assay: Epigenetic binding assay, Chromodomain. The settings on record: read-out: % Inhibition of Control Specific Binding.

For the next assay, the system named is H3K36 me2. The assay is described as follows: Cell-based detection methyl modifications. Conditions: read-out: % Inhibition of Control Values.
The target in another assay is LSD1 (h) (Homo sapiens, UniProt O60341). The assay is described as follows: Epigenetic enzyme assay, Demethylases (KDMs). The settings on record: read-out: % Inhibition of Control Values. The assay is classed as biochemical.
A further assay addresses T4, SETD8 (h) (Homo sapiens, UniProt Q9NQR1).
T4 sequence (Q9NQR1 1-393): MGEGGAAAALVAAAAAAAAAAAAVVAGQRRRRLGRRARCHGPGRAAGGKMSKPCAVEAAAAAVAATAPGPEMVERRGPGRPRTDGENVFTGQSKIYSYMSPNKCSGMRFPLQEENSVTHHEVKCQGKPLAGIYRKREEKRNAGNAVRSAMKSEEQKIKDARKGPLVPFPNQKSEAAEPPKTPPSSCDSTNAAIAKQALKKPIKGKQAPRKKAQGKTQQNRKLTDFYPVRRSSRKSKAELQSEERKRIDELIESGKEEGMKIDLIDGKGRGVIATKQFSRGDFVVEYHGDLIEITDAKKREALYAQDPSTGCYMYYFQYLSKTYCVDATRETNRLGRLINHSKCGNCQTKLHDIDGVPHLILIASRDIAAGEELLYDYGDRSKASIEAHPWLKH
The assay is described as follows: Epigenetic enzyme assay, Methyltransferases (MTs). The assay is classed as biochemical. Conditions: 10 μM; read-out: % Inhibition of Control Values.

The target of assay [2] is T5, IKK alpha(h) (substrate histone H3 full length) (Homo sapiens, UniProt O15111).
T5 sequence (O15111 1-745): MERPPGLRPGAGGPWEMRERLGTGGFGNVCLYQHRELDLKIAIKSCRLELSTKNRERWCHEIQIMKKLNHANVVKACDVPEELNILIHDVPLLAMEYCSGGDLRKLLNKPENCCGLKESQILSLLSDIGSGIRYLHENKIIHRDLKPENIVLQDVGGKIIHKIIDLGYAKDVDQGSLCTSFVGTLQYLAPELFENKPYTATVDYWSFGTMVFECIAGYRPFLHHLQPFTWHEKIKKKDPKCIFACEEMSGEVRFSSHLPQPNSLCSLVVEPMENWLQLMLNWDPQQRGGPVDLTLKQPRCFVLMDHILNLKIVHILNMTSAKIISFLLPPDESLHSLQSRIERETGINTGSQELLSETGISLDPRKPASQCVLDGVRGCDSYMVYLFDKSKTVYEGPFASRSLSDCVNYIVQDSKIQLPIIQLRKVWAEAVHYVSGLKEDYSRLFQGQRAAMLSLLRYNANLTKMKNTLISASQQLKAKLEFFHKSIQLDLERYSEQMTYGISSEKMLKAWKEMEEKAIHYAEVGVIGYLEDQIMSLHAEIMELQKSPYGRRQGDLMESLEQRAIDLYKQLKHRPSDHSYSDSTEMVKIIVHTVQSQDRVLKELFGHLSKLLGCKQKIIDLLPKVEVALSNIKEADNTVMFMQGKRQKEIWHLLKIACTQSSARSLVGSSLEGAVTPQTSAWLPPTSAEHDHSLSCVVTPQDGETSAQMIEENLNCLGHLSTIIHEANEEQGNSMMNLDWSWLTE
The assay is described as follows: Epigenetic enzyme assay, Kinases. In kind it is biochemical. Conditions: read-out: % Inhibition of Control Values.

For assay [3], the target named is MSK2(h) (substrate histone H3 full length) (Homo sapiens, UniProt O75676). Nature of the assay: Epigenetic enzyme assay, Kinases. In kind it is biochemical. The settings on record: read-out: % Inhibition of Control Values.
MSK2(h) (substrate histone H3 full length), sequence (O75676 whole entry): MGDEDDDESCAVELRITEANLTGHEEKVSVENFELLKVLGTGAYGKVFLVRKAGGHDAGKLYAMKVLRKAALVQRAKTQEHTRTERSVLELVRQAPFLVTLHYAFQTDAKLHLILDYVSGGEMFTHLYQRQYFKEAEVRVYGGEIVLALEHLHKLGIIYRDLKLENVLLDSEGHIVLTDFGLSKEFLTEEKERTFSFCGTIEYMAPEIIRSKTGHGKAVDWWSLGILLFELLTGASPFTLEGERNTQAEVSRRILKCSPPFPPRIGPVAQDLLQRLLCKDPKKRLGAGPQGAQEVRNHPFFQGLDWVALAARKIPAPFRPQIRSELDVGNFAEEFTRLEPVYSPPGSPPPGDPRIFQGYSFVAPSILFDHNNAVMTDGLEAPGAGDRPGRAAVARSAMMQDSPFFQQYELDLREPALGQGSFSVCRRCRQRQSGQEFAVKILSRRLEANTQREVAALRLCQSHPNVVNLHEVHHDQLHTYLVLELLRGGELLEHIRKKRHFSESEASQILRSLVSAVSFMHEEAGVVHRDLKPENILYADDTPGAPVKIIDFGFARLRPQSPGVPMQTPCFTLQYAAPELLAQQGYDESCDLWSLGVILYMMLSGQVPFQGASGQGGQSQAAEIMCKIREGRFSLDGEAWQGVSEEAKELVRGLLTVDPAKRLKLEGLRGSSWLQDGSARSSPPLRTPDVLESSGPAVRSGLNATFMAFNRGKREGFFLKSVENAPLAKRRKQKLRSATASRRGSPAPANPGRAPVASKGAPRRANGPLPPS

T1 sequence (Q86U86 177-287 limits assumed): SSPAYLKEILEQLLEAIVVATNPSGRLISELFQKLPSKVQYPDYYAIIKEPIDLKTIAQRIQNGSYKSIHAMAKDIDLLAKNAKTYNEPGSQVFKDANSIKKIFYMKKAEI
T2 sequence (Q92793 1085-1192 limits assumed): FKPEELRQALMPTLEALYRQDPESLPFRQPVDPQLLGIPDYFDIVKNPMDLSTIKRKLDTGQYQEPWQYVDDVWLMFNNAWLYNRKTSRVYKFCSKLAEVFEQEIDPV

`CC(C)=CCC[C@H](C)[C@@H]1CC[C@@H](C)c2c1cc(C)c(O)c2O` [Compound 4, 7,8-dihydroxyserrulat-14-ene]: in assay [1], the “% Control Response, agonist (increase in 2-DG uptake relative to insulin response)” value is −45%. In addition, in the assay on RKO-AS45-1, the EC50 is 12.8 µM, the GI50 worked out at 12.8 µM and the IC50 amounted to 12.8 µM.

As for `CC(C)=CCC[C@@H]1COc2c(C)cc(O)c3c2[C@H]1CC[C@H]3C` [Compound 3, 5,18-epoxy-8-hydroxyserrulat-14-ene], the inhibition at 10 µM on PB1(2) (h) bromodomain was 13%; at CREBBP (h) bromodomain (10 μM) it was 17%; on CBX8 (h) chromodomain, 23%; in the assay on H3K36 me2, -8%; at LSD1 (h), -3%; at SETD8 (h), -10%. Also, the results for the inhibition at 10 µM in assay [2] and in assay [3] were 14% and -1%, respectively. In assay [1], the “% Control Response, agonist (increase in 2-DG uptake relative to insulin response)” value is −52%.

Regarding `CC(C)=CCC[C@@H]1C(O)Oc2c(C)cc(O)c3c2[C@H]1CC[C@H]3C` (stereo partly drawn) [Compound 2, 5,18-epoxyserrulat-14-en-8,18-diol], the inhibition at 10 µM came out at 22% on PB1(2) (h) bromodomain; 21% on CREBBP (h) bromodomain (10 μM); 31% on CBX8 (h) chromodomain; 7% in the assay on H3K36 me2; 10% on LSD1 (h); 25% on SETD8 (h). The values for the inhibition at 10 µM in assay [2] and in assay [3] were 28% and 12%, respectively. Also, the EC50 with RKO-AS45-1 worked out at 9.64 µM. The GI50 with RKO-AS45-1 amounted to 9.62 µM. Besides, in the assay on RKO-AS45-1, the half-inhibitory concentration (IC50) is 9.64 µM.

On to `CC(C)=CCC[C@H](CO)[C@@H]1CC[C@@H](C)c2c1cc(C)c(O)c2O` [Compound 1, 7,8,18-trihydroxyserrulat-14-ene], for which the inhibition at 10 µM is 31% on PB1(2) (h) bromodomain; 65% on CREBBP (h) bromodomain (10 μM); 27% on CBX8 (h) chromodomain; 10% in the assay on H3K36 me2; 10% on LSD1 (h); 4% at SETD8 (h). Also, the inhibition at 10 µM was 26% in assay [2] and 9% in [3]. Besides, the “% Inhibition of Control Specific Binding” value at CREBBP (h) bromodomain (10 μM) is “significant inhibitory activity”. In addition, the IC50 at CREBBP (h) bromodomain (Table 9, inhibition/concentration-response curve) was 3.4 µM; in the assay on RKO-AS45-1, 1.5 µM. Moreover, in assay [1], the “% Control Response, agonist (increase in 2-DG uptake relative to insulin response)” value is −61%. Also, the “Relative cell count (%) Mean” value with RKO-AS45-1 (3.00E+00 microM) is 7.6%; in the assay with RKO-AS45-1 (3.00E+01 microM), 0.1%; in the assay with RKO-AS45-1 (3.01E−01 microM) it was 90.0%; in the assay with RKO-AS45-1 (3.01E−02 microM), 86.2%; with RKO-AS45-1 (3.02E−03 microM), 83.7%; in the assay with RKO-AS45-1 (9.49E+00 microM), 0.1%. For the same compound, the “Relative cell count (%) Mean” value with RKO-AS45-1 (9.51E−01 microM) was found to be 72.1%; with RKO-AS45-1 (9.52E−02 microM), 80.5%; in the assay on RKO-AS45-1 (9.53E−03 microM) it was 88.3%; in the assay on RKO-AS45-1 (9.55E−04 microM), 95.4%. Besides, in the assay on RKO-AS45-1, the EC50 turned out to be 1.5 µM. Further, the concentration for 50% growth inhibition (GI50) in the assay with RKO-AS45-1 came out at 1.5 µM.
